# Results: publication PMC10603992, “Antimicrobial and Adjuvant Potencies of Di-n-alkyl Substituted Diazalariat Ethers” (Antibiotics, 2023)
# Like-named read-outs stand apart in the source and are kept apart here.
# Experiments:
# [1] = Dynamic light scattering of C12LE aggregation; type: physicochemical; details: for Slope of C12LE aggregation (DLS particle size): water, in the presence of the antimicrobial or C12LE alone
# Protocol: It is known that dialkyldiazacrowns form stable aggregates in aqueous solution [57, 62]. It was hypothesized that complexation between antimicrobials and macrocycles would alter or prevent the ability of the complex to form aggregates. […] Indeed, the particle sizes observed when chlortetracycline is present was almost indistinguishable from particle formation by C12LE (4) alone.
# Measurements were performed on a Brookhaven Instruments Corp. ZetaPALS instrument at 25 °C using a 660 nm laser and correlating scattering at 90°. Samples were prepared by initially dissolving the amphiphile in filtered DMSO obtained from ThermoFisher. Next, they were diluted into 1× PBS such that DMSO was fixed at 0.5% in 15 mL sterile conical tubes. 10× PBS was obtained commercially, then diluted 10-fold in MQ H2O. The mixture was vortexed and incubated at room temperature for 2 h, then transferred to a clean quartz cuvette and equilibrated in the instrument for 10 min at 25 °C. Ten measurements consisting of 2 min runs were made on each sample. The average effective diameter was calculated with standard error reported for at least three trials.
# [2] = no reference given, cited from earlier work; for pKa of the carboxyl groups: general value
# K12 E. coli = assay: MIC against K12 E. coli; type: cell-based
# DH5α E. coli [3] = system: DH5α E. coli; set-up: method as in PMID 15858645; details: free bases, previously reported data; cited from earlier work
# DH5α E. coli [4] = assay: MIC against DH5α E. coli; type: cell-based; details: Escherichia coli, read-out: Minimum inhibitory concentration against DH5α E. coli
# S. aureus 1199B [5] = assay: MIC against S. aureus 1199B; type: cell-based, Staphylococcus aureus; details: for MIC: Staphylococcus aureus, 1199B, read-out: MIC S. aureus 1199B, MHII media, 90% growth inhibition
# [6] = Turbidimetric solubility limit in MHII or PBS; type: physicochemical; details: DMSO ≤0.5%
# Tet^R E. coli = assay: MIC against Tet^R E. coli; type: cell-based; details: Escherichia coli, read-out: MIC Tet^R E. coli
# S. aureus [7] = assay: MIC against S. aureus under various pH and media conditions; type: cell-based, Staphylococcus aureus; details: for Change in MIC as the pH was increased from 6.4 to 8.4: S. aureus, Mueller Hinton medium
# [8] = system: human embryonic kidney (HEK-293) cells; assay: Cytotoxicity against HEK-293 cells; type: cell-based; details: three independent trials
# From the text: (§1) The potential toxicity of 1–6 is a critical factor in their application either as an antimicrobial or an adjuvant. In vitro toxicity studies were therefore conducted using human embryonic kidney (HEK-293) and simian kidney (COS-7) cells. The graphs shown in Figure 20 show the percentage survival of each cell type as a function of lariat ether concentration on the logarithmic x-axis. In each graph, the IC50 value is specified for each compound and cell type. The value of IC50 is the concentration of lariat ether that inhibits the growth of 50% of the cells studied.
# (§2) The cytotoxicity experiments were conducted as described in [44].
# [9] = system: simian kidney (COS-7) cells; assay: Cytotoxicity against COS-7 cells; type: cell-based; details: Chlorocebus aethiops, COS-7, percentage survival, three independent trials
# From the text: as §1, §2
# [10] = target: T1, NorA efflux pumps in S. aureus 1199B (Staphylococcus aureus, UniProt P0A0J7); assay: Efflux pump inhibition (EthBr accumulation); type: cell-based; details: 3 at […] µM vs reserpine at 50 µg/mL (80 µM)
# T1 construct: Increase in EthBr fluorescence observed by its accumulation in S. aureus 1199B cytosol; endogenous in cells; host or cells: Staphylococcus aureus 1199B (whole bacteria)
# From the text: An important reason for the choice of S. aureus 1199B for study is that its resistance to norfloxacin is known to result from the presence of the Nor A efflux pump. Efflux pumps require regulated ion balance to function so that exogeneous substances such as antibacterials can effectively be ejected. Ethidium bromide (EthBr) can penetrate bacteria and is detectable by its fluorescence. To the extent that ion homeostasis is disrupted, ion balance is deregulated, and efflux pump function is compromised or inhibited.
# Experimental details have been reported in [44].
# S. aureus [11] = assay: Membrane depolarization by DiBAC4(3) fluorescence; type: cell-based, Staphylococcus aureus; details: compound at ½ MIC
# Protocol: Disruption of ion homeostasis by 1–6 should be apparent in the associated membrane depolarization. […] The dye is readily absorbed by bacteria owing to the negative internal potential. Disruption of ion homeostasis will affect both proton and potassium cation regulation. The internalized, self-quenched dye will be released and increased fluorescence will be observed.
# Two types of experiments were performed to assess membrane depolarization. […] If ion homeostasis is affected by the presence of any of these compounds, the fluorescent response should increase as the lariat ether concentration increased.
# A second series of experiments was performed to determine the relationship of disrupted ion homeostasis, as reflected in membrane depolarization with cellular vitality (Figure 17). […] Alamar blue (see above) was used to determine cell viability. No depolarization was apparent in the S. aureus control in the absence of a lariat ether or lariat ether derivative. Depolarization was greatest for C10LE•MeI (3). […] We note that the MIC values for S. aureus observed for 2, 3, 5, and 6 were similar.
# The membrane depolarization study was conducted as described in [48].
# S. aureus (1199B) = assay: Membrane permeability (propidium iodide / alamar blue); type: cell-based, Staphylococcus aureus; details: compound at ½ MIC
# Protocol: Membrane permeability was assessed by using the dyes propidium iodide and alamar blue. […] However, when PI does enter a cell, it intercalates within the DNA structure. […] When intercalation occurs, a strong fluorescent emission can be detected. Alamar blue, based on resazurin, is a nontoxic weakly fluorescent dye that is sensitive to reduction potential within vital cells. When reduced, it is converted into highly fluorescent resorufin (7-hydroxy-3H-phenoxazin-3-one).
# The combination of alamar blue and propidium iodide allowed us to assess the membrane permeability of S. aureus while confirming cellular vitality. Results of the PI/alamar blue studies with S. aureus are summarized in the graph of Figure 5. When S. aureus (1199B) was exposed to the two dyes, penetration of PI was relatively low and cellular vitality remained high. […] In general, cellular penetration and vitality correlated.
# Membrane permeability studies were conducted as detailed in [48].
# S. aureus 1199B [12] = assay: Checkerboard combination with norfloxacin; type: cell-based, Staphylococcus aureus
# From the text: Each of the checkerboard analyses shown in Figure 7 combines one of 1–6 with norfloxacin. S. aureus 1199B is resistant to norfloxacin. By combining varying concentrations of both norfloxacin and a lariat ether or lariat ether derivative, potency enhancement, if any, can be determined. In the graphs (checkerboards) shown, the potency of each concentration combination can be assessed visually.
# In both cases, the concentrations varied by a factor of two. Four controls were employed on each checkerboard plate: full growth (only cells), no growth (only media), and then a column for each drug alone to accurately reflect their individual MIC values. The concentrations of amphiphile and antibiotic tested were ½, ¼, ^1/8, ^1/16, and ^1/32 of the MIC. Preparation of the stock solutions and plates was by the same method described in the minimum inhibitory concentration section.
# [13] = no additional antimicrobial, MICs in table limited to […]
# [14] = Escherichia coli, MHII media, 90% growth inhibition, read-out: MIC K12 E. coli
# [15] = Mueller Hinton II broth, 37 °C, pH 7.3, plasma or biological fluid, kinetic from dmso stock, Mueller Hinton II, pH 7.3, 2 h at 37 °C, read-out: Solubility limit in MHII
# [16] = phosphate-buffered saline, 37 °C, aqueous buffer, kinetic from dmso stock, phosphate-buffered saline, 2 h at 37 °C, read-out: Solubility limit in PBS
# [17] = Staphylococcus aureus, MH + Ca2+, read-out: MIC S. aureus, MH + Ca^2+
# [18] = Staphylococcus aureus, pH 6.4, MHII, pH 6.4, read-out: MIC S. aureus, MHII pH 6.4
# [19] = Staphylococcus aureus, pH 7.4, MHII, pH 7.4, read-out: MIC S. aureus, MHII pH 7.4
# [20] = Staphylococcus aureus, pH 8.4, MHII, pH 8.4, read-out: MIC S. aureus, MHII pH 8.4
# [21] = Homo sapiens, HEK293, percentage survival
# T1 sequence (P0A0J7 whole entry): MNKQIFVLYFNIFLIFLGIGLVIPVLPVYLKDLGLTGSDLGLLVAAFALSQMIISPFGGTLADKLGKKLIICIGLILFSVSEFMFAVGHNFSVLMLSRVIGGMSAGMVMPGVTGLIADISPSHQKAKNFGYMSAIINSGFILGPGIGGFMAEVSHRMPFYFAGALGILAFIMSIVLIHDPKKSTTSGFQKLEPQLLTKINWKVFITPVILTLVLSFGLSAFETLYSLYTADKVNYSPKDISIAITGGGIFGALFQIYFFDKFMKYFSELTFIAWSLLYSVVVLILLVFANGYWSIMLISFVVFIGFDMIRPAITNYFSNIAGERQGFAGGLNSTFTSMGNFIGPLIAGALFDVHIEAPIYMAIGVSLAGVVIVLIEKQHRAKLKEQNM
smiles,measurement,setting,value
"NC[C@H]1O[C@H](O[C@H]2[C@H](O)[C@@H](O[C@H]3O[C@H](CO)[C@@H](O)[C@H](N)[C@H]3O)[C@H](N)C[C@@H]2N)[C@H](O)[C@@H](O)[C@@H]1O [Kanamycin, kanamycin]",Slope of C12LE aggregation (DLS particle size),[1],2.5
"CC1(C)S[C@@H]2[C@H](NC(=O)[C@H](N)c3ccccc3)C(=O)N2[C@H]1C(=O)O [Ampicillin, ampicillin]",pKa of the carboxyl groups,[2],2.6–2.8
CCCCCCCCCCCCCCN1CCOCCOCCN(CCCCCCCCCCCCCC)CCOCCOCC1 [n-tetradecyl LE],MIC,"K12 E. coli; Escherichia coli, read-out: MIC K12 E. coli, MHII media, 90% growth inhibition",≥ 128 µM
same,Minimum inhibitory concentration against DH5α E. coli,DH5α E. coli [3],>128 µM
"CO/N=C(\C(=O)N[C@@H]1C(=O)N2C(C(=O)[O-])=C(C[N+]3(C)CCCC3)CS[C@H]12)c1csc(N)n1 [Cefepime, cefepime]",Slope of C12LE aggregation (DLS particle size),[1],3.2
"O=C(O)c1cn(C2CC2)c2cc(N3CCNCC3)c(F)cc2c1=O [Ciprofloxacin, ciprofloxacin]",Slope relative to the particle size profile of C12LE alone,[1]; DLS,about 60%
same,Slope of C12LE aggregation (DLS particle size),[1],1.8
CCCCCCCCCCCCCC[N+]1(C)CCOCCOCC[N+](C)(CCCCCCCCCCCCCC)CCOCCOCC1 (centres unmarked) [n-tetradecyl LE•MeI],MIC,DH5α E. coli [4]; [13],> 128 µM
"CCn1cc(C(=O)O)c(=O)c2cc(F)c(N3CCNCC3)cc21 [Norfloxacin, reference compound]",MIC,K12 E. coli; [14],0.125 µM
same,MIC,S. aureus 1199B [5],64 µM
CCCCN1CCOCCOCCN(CCCC)CCOCCOCC1 [di-n-butyl-diaza-18-crown-6],pK1 of macro ring nitrogen atoms,[2],9.40
same,pK2 of macro ring nitrogen atoms,[2],7.97
"CC1(C)S[C@@H]2[C@H](NC(=O)Cc3ccccc3)C(=O)N2[C@H]1C(=O)O [Penicillin G, penicillin G]",pKa of the carboxyl groups,[2],2.6–2.8
CCCCCCCC[N+]1(C)CCOCCOCC[N+](C)(CCCCCCCC)CCOCCOCC1 (centres unmarked) [n-octyl LE•MeI],MIC,DH5α E. coli [4]; [13],> 128 µM
"CCCCCCCCCCCN1CCOCCOCCN(CCCCCCCCCCC)CCOCCOCC1 [n-undecyl LE, N,N′-Di-n-undecyl-4,13-diaza-18-crown-6]",Minimum inhibitory concentration against DH5α E. coli,DH5α E. coli [3],20 µM
"CCCCCCCCCC[N+]1(C)CCOCCOCC[N+](C)(CCCCCCCCCC)CCOCCOCC1 (centres unmarked) [C10LE•2MeI (3), N,N′-Di-n-decyl-4-13-diaza-18-crown-6 bis(methiodide)]",MIC,DH5α E. coli [4]; [13],24 µM
same,solubility at 2 h,[6]; [15],64 µM
same,solubility at 2 h,[6]; [16],≥ 128 µM
same,MIC,K12 E. coli; [14],16 µM
same,MIC,Tet^R E. coli,32 µM
same,MIC,S. aureus 1199B [5],1 to 2 µM
same,Change in MIC as the pH was increased from 6.4 to 8.4,S. aureus [7],unchanged
same,MIC,S. aureus [7]; [17],16 µM
same,MIC,"S. aureus [7]; Staphylococcus aureus, MH medium, read-out: MIC S. aureus, MH",2 µM
same,MIC,S. aureus [7]; [18],2 µM
same,MIC,S. aureus [7]; [19],2 µM
same,MIC,S. aureus [7]; [20],2 µM
same,IC50,[8]; [21],36 µM
same,IC50,[9],53 µM
same,Potency as efflux pump inhibitor relative to reserpine,[10],approximately five times more potent
same,Membrane depolarization (DiBAC4(3) fluorescence),S. aureus [11],greatest
same,PI penetration (membrane permeability),S. aureus (1199B),good penetration
"CCCCCCCCCCN1CCOCCOCCN(CCCCCCCCCC)CCOCCOCC1 [C10LE (1), N,N′-Di-n-decyl-4-13-diaza-18-crown-6]",MIC,DH5α E. coli [4],11 µM
same,solubility at 2 h,"[6]; Mueller Hinton II, pH 7.3, 2 h at 37 °C, read-out: Solubility limit in MHII",≥128 µM
same,solubility at 2 h,"[6]; phosphate-buffered saline, 2 h at 37 °C, read-out: Solubility limit in PBS",≥128 µM
same,MIC,"K12 E. coli; MHII media, 90% growth inhibition, read-out: MIC K12 E. coli",10 µM
same,MIC,Tet^R E. coli,8 µM
same,MIC S. aureus 1199B,"S. aureus 1199B [5]; MHII media, 90% growth inhibition",8 µM
same,MIC,"S. aureus [7]; MH medium, read-out: MIC S. aureus, MH",16 µM
same,MIC,"S. aureus [7]; MHII, pH 6.4, read-out: MIC S. aureus, MHII pH 6.4",16 µM
same,MIC,"S. aureus [7]; MHII, pH 7.4, read-out: MIC S. aureus, MHII pH 7.4",≥16 µM
same,MIC,"S. aureus [7]; MHII, pH 8.4, read-out: MIC S. aureus, MHII pH 8.4",32 µM
same,Change in MIC as the pH was increased from 6.4 to 8.4,S. aureus [7],changes in MIC were observed
same,MIC,S. aureus [7]; [17],16 µM
same,Norfloxacin concentration required to effect 90% growth inhibition,S. aureus 1199B [12]; lariat ether co-administered at 2 µM,0.5 µM
same,Fold increase in the potency of norfloxacin,"S. aureus 1199B [12]; norfloxacin-resistant S. aureus 1199B, checkerboard",128 fold
same,IC50,[8]; [21],13 µM
same,IC50,[8]; percentage survival,≤ 10 µM
"CCCCCCCCCCCC[N+]1(C)CCOCCOCC[N+](C)(CCCCCCCCCCCC)CCOCCOCC1 (centres unmarked) [C12LE•2MeI (6), N,N′-Di-n-dodecyl-4-13-diaza-18-crown-6 bis(methiodide)]",MIC,DH5α E. coli [4]; [13],2 µM
same,solubility at 2 h,[6]; [15],1 to 2 µM
same,solubility at 2 h,[6]; [16],≥ 128 µM
same,MIC,K12 E. coli; [14],4 µM
same,MIC,Tet^R E. coli,16 µM
same,MIC,S. aureus 1199B [5],1 µM
same,Change in MIC as the pH was increased from 6.4 to 8.4,S. aureus [7],unchanged
same,MIC,S. aureus [7]; [18],2 µM
same,MIC,S. aureus [7]; [19],2 µM
same,MIC,S. aureus [7]; [20],2 µM
same,IC50,[8]; [21],11 µM
same,IC50,[8]; percentage survival,≤ 10 µM
same,IC50,[9],25 µM
same,PI penetration (membrane permeability),S. aureus (1199B),level of PI penetration similar to that observed for S. aureus alone
